From patent publication US20040265252A1, “Compounds stimulating and inhibiting melanin formation, and methods for screening these compounds” (New York University, priority 2003, published 2004)

How the values were obtained:
melan-a melanocytes = test: Melanin assay / pigmentation of cultured melanocytes; type: cell-based, mouse
Experimental: The numbers above the bars indicate the percent increase in melanin production relative to the untreated control. For this assay, melan-a melanocytes were cultured in DMEM supplements with 10% FCS, 1% L-glutamine, 1% penicillin/streptomycin, and 40 nM TPA. The cultures were maintained at 37° C., 5% CO2. The cells were seeded at 5×10^4 cells per well in 24 well plates and treated for 72 hours. Photographs were taken after 72 hours at 40× magnification. The cells were harvested, centrifuged, and the protein was extracted from the pellet with 1:1 ethanol:ether. The melanin pellets were solubilized in 20% DMSO/2N NaOH. Samples were transferred to a 96-well plate and the optical density was read at 490 nm using a Biorad 550 spectrophotometer.
The cells were rinsed with phosphate buffered saline (PBS) and lysed with an extraction buffer of […] Tris, pH 7.5; 2 mM ethylenediamine tetraacetic acid (EDTA), pH 7.8; 150 mM NaCl; 1% Titron X-100, with protease inhibitor cocktail at 4° C. The cell extracts were then spun at 12,000 rpm for 10 minutes at 4° C. The remaining pellet was assayed for melanin by rinsing twice with ethanol-ether (1:1) and dissolving in 200 microL of 2N NaOH in 20% DMSO at 60° C. A 100 microL aliquot of the resulting solution was then measured for absorbance at […].

[1] = molecular target: T1, mitochondrial F1F0 ATPase (Mus musculus, UniProt P56480+Q03265+Q9CR84); test: Affinity chromatography on immobilized PPA (PPA-Affi) with competition, melanocyte extracts; type: binding; details: for competition with ATPase binding to PPA affinity matrix: melan-a extracts, competitor 30 minutes at 4° C., antibodies to beta and alpha subunits
T1 construct: endogenous in cells; host or cells: Melan-a murine melanocytes
Experimental: Melanocyte extracts were incubated with PPA-Affi in the presence of the compounds shown. After extensive washing, bound proteins were then eluted with SDS-containing buffer and subjected to SDS-PAGE and silver staining. […] The binding of mitochondrial ATPase was inhibited not only by PPA itself but also by oligomycin, a known mitochondrial ATPase inhibitor.
FIG. 5 is another illustration that mitochondrial ATPase is the target of PPA. The experimental protocol were similar to those described above, but rather than silver stain, immunoblotting was conducted with antibodies to the beta and alpha subunits of the mitochondrial ATPase. The primary antibody in A was anti-F1-ATPase beta subunit antibody (1:2500, 1 hour), and the primary antibody in B was anti-ATPase alpha subunit antibody (1:2500, 1 hour). The secondary antibody was anti-mouse Goat IgG (1:2500, 1 hour).
For this experiment, the cell source was Melan-a (murine melanocyte). The reaction volume was 147 microL of protein extract (0.3 mg/mL)+147 microL bead buffer+6 microL competitor (aurovertin or PPA6 or DMSO). The competition took place for 30 minutes at 4° C. with rocking. The bead volume was 40 microL of 50% slurry. The beads were washed with 1 mL bead buffer seven times. Elution was with 40 microL+30 microL Laemmli buffer, heating for 4 minutes at 90° C.
For the gel electrophoresis, the gel was 10% SDS-PAGE gel, 20-well combination. The loading volume was 25 microL (2nd elution). Running was 30V, overnight.
Protein was extracted from cells by incubation with extraction buffer (1 mM CaCl2, 150 mM NaCL; 10 mM Tris, pH 7.4; 1% Triton X-100, 1 mM PMSF plus protease inhibitor cocktail (Roche, NJ, USA) for five minutes on ice. Crude lysate was centrifuged at 13,000 rpm for ten minutes. The protein concentration of the supernatant was measured by the Bradford assay (Bio-Rad, CA) and adjusted to a final concentration of 1 microg/microL prior to affinity chromatography. […]

[2] = molecular target: T2, mitochondrial ATPase (beta subunit, OSCP) (Homo sapiens, UniProt P05496+P06576+P48047); test: PPA-Affi affinity binding and competition, SK Mel19 extracts; details: SK Mel19 protein extract
T2 construct: Using human melanoma cell source SK Mel 19, the reaction volume was 147 microL of protein extract; endogenous in cells; host or cells: SK Mel19 human melanoma cells
Experimental: Using human melanoma cell source SK Mel 19, the reaction volume was 147 microL of protein extract (1.0 mg/mL)+147 microL bead buffer+6 microL competitor (oligomycin) or S+DMSO. Competition was effected for 30 minutes at 4° C. with rocking. The bead volume was 40 microL of 50% slurry. Washing was five times with 1 mL bead buffer, and elution was with 40 microL Laemmli buffer, with heating for 4 minutes at 90° C. Gel electrophoresis was with 10% SDS-PAGE gel, 20 well combination. Loading volume was 35 microL, and running was 30V, overnight.
Using human melanoma cell source SK Mel 19, the reaction volume was 99 microL of protein extract (1.0 mg/mL)+99 microL bead buffer+2 microL competitor (oligomycin) or DMSO. Incubation was effected for 30 minutes at 4° C. with rocking. The bead volume was 40 microL of 50% slurry. Washing was five times with 1 mL bead buffer, and elution was with 40 microL Laemmli buffer, with heating for 4 minutes at 90° C. Gel electrophoresis was with 10% SDS-PAGE gel, 20 well combination. Loading volume was 35 microL, and running was 100V for one hour.

tyrosinase [3] = molecular target: T3, tyrosinase (Mus musculus, UniProt P11344); test: Tyrosinase assay on pre-lysed cells; type: biochemical; details: pre-lysed cells treated with compound
T3 construct: tyrosinase assay on cell lysates derived from whole cells; endogenous in cells; host or cells: melanocytes
T3 sequence (P11344 19-533): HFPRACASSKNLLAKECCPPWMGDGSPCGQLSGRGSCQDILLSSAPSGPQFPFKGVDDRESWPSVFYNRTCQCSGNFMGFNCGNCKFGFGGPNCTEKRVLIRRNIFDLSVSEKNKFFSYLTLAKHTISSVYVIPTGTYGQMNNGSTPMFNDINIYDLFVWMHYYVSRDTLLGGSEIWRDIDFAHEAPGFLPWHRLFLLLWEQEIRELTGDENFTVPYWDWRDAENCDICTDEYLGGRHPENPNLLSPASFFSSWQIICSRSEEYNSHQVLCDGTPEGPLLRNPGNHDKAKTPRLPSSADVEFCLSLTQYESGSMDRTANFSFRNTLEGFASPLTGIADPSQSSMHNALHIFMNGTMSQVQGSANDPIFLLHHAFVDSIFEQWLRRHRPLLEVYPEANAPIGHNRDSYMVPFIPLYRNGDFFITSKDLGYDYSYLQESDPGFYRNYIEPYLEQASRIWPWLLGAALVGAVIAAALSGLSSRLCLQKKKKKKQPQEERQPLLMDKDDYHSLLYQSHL

tyrosinase [4] = test: Tyrosinase assay on conditioned media; type: cell-based; details: conditioned media of treated cells

Row | SMILES | pigmentation (melanin production) (melan-a melanocytes) | competition with ATPase binding to PPA affinity matrix [1] | inhibition of binding of mitochondrial ATPase to PPA-Affi ([1]; melanocyte extracts, SDS-PAGE and silver staining) | elution of beta subunit and OSCP bound to PPA-Affi [2] | tyrosinase activity (tyrosinase [3]) | secreted tyrosinase activity (tyrosinase [4])
1 | CC[C@H]1/C=C/C=C/C[C@@H](C)[C@H](O)[C@@](C)(O)C(=O)[C@@H](C)[C@H](O)[C@@H](C)C(=O)[C@@H](C)[C@H](O)[C@@H](C)/C=C/C(=O)O[C@@H]2[C@H](C)[C@H](CC1)O[C@]1(CC[C@H](C)[C@H](C[C@@H](C)O)O1)[C@H]2C [oligomycin, Oligomycin] | promote pigmentation | competed with ATPase binding | inhibited | eluted by oligomycin | – | –
2 | CC[C@H]1O[C@]2(C)[C@H](OC(C)=O)[C@@]1(C)O[C@@H](/C=C/C=C/C=C/c1oc(=O)cc(OC)c1C)[C@@H]2O [aurovertin, aurovertin B] | promote pigmentation | do not compete | – | – | – | –
3 | NC(=S)Nc1ccccc1 [PTU, phenylthiourea] | – | – | – | – | significant decrease in tyrosinase activity | –
4 | CC(C)Cn1c(=O)n(C)c(=O)c2[nH]cnc21 [IBMX, 3-Isobutyl-1-methylxanthine] | – | – | – | – | only a marginal change | large increase in secreted enzyme activity
